These are literature values, as cited in patent US12201623B1, “Composition and method for preventing long-term COVID-19 morbidity” (priority 2021, dated 2025).

The test system of the series is SARS-COV-2. Conditions: peripheral blood monocytes purified from healthy volunteers.

For `CC(=O)N[C@@H](CS)C(=O)O` [NAC], the SARS-COV-2 replication entry was “suppressed”.
`COC1=C(OC)C(=O)C(CCCCCCCCCC[P+](c2ccccc2)(c2ccccc2)c2ccccc2)=C(C)C1=O` [MitoQ]: the SARS-COV-2 replication entry is “suppressed”.
